Source: patent US6902748B1, “Medicines manufactured from old platycodon extracts” (Jang Saeng Doraji Co., Ltd, priority 1999, dated 2005)

System: edema of both feet of SD-rats
Assay: Edema suppression in rheumatic arthritis model (heat-killed Mycobacterium injected into right sole)
Assay type: in vivo
Conditions: 4 mg/day; about 20 days after injection
Experimental: At about 20 days after injection of 0.6 mg/kg heat-killed 5. Mycobacterium histolyticm to the right sole of the feet of SD-rats, the degree of inhibition against inflammation was investigated by measuring the size of edema of both feet. The rats were divided into 7 groups and examined; feed group (group A) as a control group, not being caused edema, group B which was fed with 4 mg/day of predisolone as edema suppression agents, group C which was fed with 160 mg/day of ordinary platycodon extract, group D which was fed with 20 mg/day of 14 kinds of herbal medicine extract, group E which was fed with 160 mg/day of the old platycodon extract, group F which was fed with 40 mg/day of herbal medicine extract and 160 mg/day of the old platycodon extract. Each group was assigned to have 6 SD-rats.

C[C@]12C=CC(=O)C=C1CC[C@@H]1[C@@H]2[C@@H](O)C[C@@]2(C)[C@H]1CC[C@]2(O)C(=O)CO [predisolone]
Edema suppression activity in the left foot: 83.8%
Edema suppression activity in the right foot: 84.5%
